Each structure is given as a SMILES string.

The results in this text go back to the CATMoS acute toxicity set (Mansouri et al. 2021).

A short description of this data set: GHS categories as the set defines them, by LD50: 1 up to 5, 2 up to 50, 3 up to 300, 4 up to 2000, 5 above 2000 mg/kg. To be noted: rat; in vivo; po.
For `CO/N=C(/C(=O)N[C@@H]1C(=O)N2C(C(=O)OCOC(=O)C(C)(C)C)=C(C)CS[C@H]12)c1csc(N)n1`, the GHS category amounted to 5.
The compound `O=C(C=Cc1ccccc1)OCCCc1ccccc1` gave a GHS category of 5.
For the compound `Cc1ccn2c(=O)c(C(=O)NC3CCCC3)cnc2c1`, the GHS category is recorded as 3.
As for `CC[C@H](C)[C@@H]1NC(=O)[C@H](Cc2ccc(O)cc2)NC(=O)[C@@H](N)CSSC[C@@H](C(=O)N2CCC[C@H]2C(=O)N[C@@H](CC(C)C)C(=O)NCC(N)=O)NC(=O)[C@H](CC(N)=O)NC(=O)[C@H](CCC(N)=O)NC1=O`, the GHS category came to 2.
In the case of `CCCCCOc1ccc(-c2ccc(C#N)cc2)cc1`, the GHS category is listed as 5.
In the case of `COc1nc2cc(Cl)ccc2o1`, the GHS category is 4.
The compound `Cc1ncoc1C(N)=O` yielded a GHS category of 5.
For `O=CC=Cc1ccco1` the value was 4; for `CC1CCCO1` (centres undefined), 4; for `NS(=O)(=O)c1ccccc1C(F)(F)F`, 4.
As to `C[C@H]1C[C@@H]2[C@H]([C@@H](O)C[C@@]3(C)[C@H]2CC[C@]3(O)C(=O)CO)[C@@]2(C)C=CC(=O)C=C12`, the GHS category was 5.
The result for `CCC(=O)OC1C=CC2C3CCC(C3)C12` (centres undefined) reads 5; that for `CCOC(=O)C(C)(C)NC(=O)c1cnc2cccc(C)n2c1=O`, 3; that for `C[C@@H](Oc1cc(Br)cnc1N)c1c(Cl)ccc(F)c1Cl`, 5.
In turn, `O=CN(O)CCCP(=O)(O)O` showed a GHS category of 5.
`CC12CCC3c4ccc(OC(=O)c5ccccc5)cc4CCC3C1CCC2OC(=O)COC(=O)CCCc1ccc(NCCCl)cc1` (centres undefined) showed a GHS category of 5.
As for `CC(C)[C@H](N)C(=O)O`, the GHS category is given as 5.
`C=C1[C@H]2CC[C@@H]3[C@H]2C(C)(C)CCC[C@]13C` returned a GHS category of 5.
For the compound `CCCCC(C)OP(=S)(OCC)OCC` (centres undefined), the GHS category is recorded as 4.
`CCOC(=O)c1cnn(-c2ccccc2)c1N`: the GHS category is 4.
As to `CO[C@@]1(NC(=O)CSC[C@@H](N)C(=O)O)C(=O)N2C(C(=O)O)=C(CSc3nnnn3C)CS[C@@H]21`, the GHS category is listed as 5.
In the case of `COc1ccc2c(c1)CCN(c1ccccc1)C2c1ccc(OCCN2CCCCC2)cc1` (centres undefined), the GHS category was 4.
For `Oc1cc(O)c2c(c1)O[C@H](c1ccc(O)c(O)c1)[C@@H](O)C2` the value was 5; for `CC(C)(N=C(O)C(Br)C(C)(C)C)c1ccccc1` (centres undefined), 5; for `Cc1ccc(Nc2nc(Nc3ccc(C)cc3)c(N=Nc3ccccc3C(F)(F)F)c(C)c2C#N)cc1`, 5.
`CCCCCCCCCC(=O)Nc1ccc(Cc2ccccn2)c([N+](=O)[O-])c1` displayed a GHS category of 3.
Consider `Cc1cccc2ncc(C(=O)NC3CC3)c(=O)n12`, for which the GHS category worked out at 3.
Compound `CNC(=O)/C(=N/OC)c1ccccc1COc1cc(C)ccc1C` displayed a GHS category of 5.
`COc1ccc(-c2cc(=O)c3c(OCCO)cc(O[C@@H]4O[C@H](CO[C@@H]5O[C@@H](C)[C@H](O)[C@@H](O)[C@H]5O)[C@@H](O)[C@H](O)[C@H]4O)cc3o2)cc1O` showed a GHS category of 5.
`O=C1CC(=O)NC(=S)N1` displayed a GHS category of 5.
For `C=CCC(C)C` the value was 5; for `O=S(=O)(CCl)c1ccc(Br)cc1`, 5.
For `CC(C)OC(=O)Nc1nc(N2CC=CCC2)cc2nc(=O)on12` the value was 5; for `CCC(=O)/C=C/C=C(\C)CCC=C(C)C`, 5.
For `O=P(O)(O)c1ccccc1` the value was 5.
Compound `O=C(c1ccccc1)C1(O)CCCCC1` gave a GHS category of 5.
On to `COc1cc([N+](=O)[O-])ccc1N=NC(C(C)=O)C(=O)Nc1cc(Cl)ccc1OC` (centres undefined), for which the GHS category is given as 5.
For `O=[N+]([O-])c1ccc(C(O)C(CO)N=Cc2ccc(N(CCCl)CCCl)cc2)cc1` (centres undefined), the GHS category was found to be 5.
In turn, `Oc1c(I)cc(Cl)c2cccnc12` had a GHS category of 5.
